Experimental data published in patent publication US5070210A, “Novel ketenimines as intermediates for insecticides” (ICI Americas Inc., priority 1990, dated 1991).

What was measured:
Type in all cases: in vivo
[1] = tested on: Housefly [Musca domestica]; test: Housefly insecticidal test; settings: μg per 25 female flies; mortality after 48 hours
In short: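 LC50 (μg compound per 25 female flies) derives from dosage-mortality curves of 48 h kill. Flies, females 1-2 days old, were held 25 per cage over a dish coated with dried acetone deposit, starting at 100 μg per cage and descending.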

[2] = tested on: Tobacco Budworm [Heliothis virescens (Fabricius)] eggs; test: Tobacco budworm egg test; settings: 2-day old eggs, percent in solution
In short: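 LC50 values (percent test compound in the dip solution) were calculated from dosage-mortality curves. Egg patches, 2 days old, were dipped in acetone solutions at concentrations from 0.1% downward and held at 78° F on rearing medium until control larvae hatched and fed.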

[3] = tested on: Cabbage Looper [Trichoplusia ni (Hubner)]; test: Cabbage looper insecticidal test; settings: second-instar larvae, percent in solution; 3-5 days
In short: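 Leaf dip, squash cotyledons, 50-50 acetone-water, top dose 0.1% and lower. 5 second-instar larvae/dish, moist filter paper, high-humidity chamber. Mortality at 3-5 d; LC50 (% in solution) from dosage-mortality curves.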

[4] = tested on: Aster Leafhopper [Macrosteles fascifrens (Stal)]; test: Aster leafhopper insecticidal test; settings: adults/nymphs, percent in solution; 48 hours
Procedure: The compounds in Tables 1 and 2 above were tested for insecticidal activity using the following testing procedures. LC50 values, based on the results of these tests and calculated according to dosage-mortality curves, are expressed in Table 3.
Aster Leafhopper [Macrosteles fascifrens (Stal)]
Oat seedlings (Avena sp) were grown in a commercial potting soil in cups. When the plants were approximately 10 cm tall they were thinned to three plants per cup and dipped for 2-3 seconds in 50-50 acetone-water solutions of the test compounds. When the plants had dried, a clear plastic tube was placed over them and the bottom end pressed into the cup. Ten aster leafhopper adults/nymphs were then placed in each tube and the tops of the tubes covered with white organdy cloth. Mortality counts were made after 48 hours. Test concentrations ranged from 0.05% down to that at which 50% mortality occurred. The LC50 values are expressed below in Table 3 under the heading "LH" in terms of the percent of the test compound in the solution.

[5] = tested on: Maize weevil [Sitophilus Zeamais (Motschulsky)]; test: Maize weevil insecticidal test; settings: adult weevils, percent in solution; 48 hours
In short: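 LC50, in percent of compound in solution, was derived from dosage-mortality curves after 48 h at about 25 °C. Ten adult weevils per container fed on four corn seeds briefly immersed in acetone:water (50:50) solutions of up to 0.01% and dried.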

| SMILES | LC50, HF [1] [µg] | LC50, TBW, E (TBW-E) [2] [%] | LC50, CL [3] [%] | LC50, LH [4] [%] | LC50, MW [5] [%] |
| --- | --- | --- | --- | --- | --- |
| Cc1cccc(N=C(OCc2cccc(Oc3ccccc3)c2)C(C)C)c1 [Compound 155] | 9 | 0.06 | 0.004 | > 0.05 | > 0.01 |
| Cc1ccc(N=C(OCc2cccc(Oc3ccccc3)c2)C(C)C)cc1 [Compound 156] | 10 | 0.05 | 0.004 | > 0.05 | > 0.01 |
| COc1ccc(N=C(OCc2cccc(Oc3ccccc3)c2)C(C)C)cc1 [Compound 160] | 7 | 0.09 | 0.005 | 0.05 | > 0.01 |
| CC(C)C(=Nc1ccc(C#N)cc1)OCc1cccc(Oc2ccccc2)c1 [Compound 172] | 5 | 0.04 | 0.002 | > 0.05 | > 0.01 |
| c1ccc(Oc2cccc(COC(=Nc3ccc4c(c3)OCO4)C3CC3)c2)cc1 [Compound 177] | 13 | > 0.1 | 0.002 | > 0.05 | 0.01 |
| CCC(=Nc1ccc2c(c1)OCO2)OCc1cccc(Oc2ccccc2)c1 [Compound 178] | 6 | > 0.1 | 0.004 | > 0.05 | > 0.01 |
| CC(C)C(=Nc1ccc2c(c1)OCCO2)OCc1cccc(Oc2ccccc2)c1 [Compound 179] | 13 | > 0.1 | 0.004 | 0.005 | > 0.01 |
| CC(C)C(=Nc1ccc(-c2ccccc2)cc1)OCc1cccc(Oc2ccccc2)c1 [Compound 186] | > 100 | > 0.1 | 0.008 | > 0.05 | > 0.01 |
| CC(C)C(=Nc1ccc(Cl)cc1)OCc1cccc(Oc2ccc(F)cc2)c1 [Compound 189] | 17 | 0.07 | 0.00027 | 0.002 | > 0.01 |
| CC(C)C(=Nc1ccc(Cl)c(C(F)(F)F)c1)OCc1cccc(Oc2ccc(F)cc2)c1 [Compound 193] | 100 | > 0.1 | 0.00075 | 0.001 | > 0.01 |
| CC(C)C(=Nc1ccc(F)c(Cl)c1)OCc1cccc(Oc2ccc(F)c(F)c2)c1 [Compound 217] | 8 | 0.015 | 0.00006 | > 0.05 | 0.0084 |
| CC(C)C(=Nc1ccc2c(c1)OCO2)OCc1cccc(Oc2ccc(Cl)cc2)c1 [Compound 240] | 14 | 0.04 | 0.0003 | > 0.05 | > 0.01 |
| CC(C)C(=Nc1cccc(I)c1)OCc1cccc(Oc2ccc(F)cc2)c1 [Compound 255] | 16 | 0.075 | 0.00017 | 0.0005 | > 0.01 |
| CSc1ccc(Oc2cccc(COC(=Nc3ccc(F)c(Cl)c3)C(C)C)c2)cc1 [Compound 256] | > 100 | 0.1 | 0.007 | > 0.05 | > 0.01 |
| CC(C)C(=Nc1ccc(F)cc1)OCc1cccc(Oc2ccc(Br)cc2)c1 [Compound 259] | 15 | 0.05 | 0.0003 | > 0.05 | > 0.01 |
| CC(C)C(=Nc1cccc([N+](=O)[O-])c1)OCc1cccc(Oc2ccc(Cl)cc2)c1 [Compound 271] | 27 | 0.1 | 0.0004 | > 0.05 | > 0.01 |
